The subject of experiment [1] is bacterial translation (E. coli S30 extract). The experiment is described as follows: In vitro translation inhibition of firefly luciferase mRNA, E. coli S30 extract. The class given is biochemical. To be noted: 30 µM. On the procedure:
Briefly, in vitro-transcribed firefly luciferase mRNA (fluc) was translated using the E. coli S30 Extract System for Linear Templates (Promega, Madison, WI, USA). Reaction mixtures (with a 5 μL total volume) supplemented with 0.1 mM of a mixture of all canonical amino acids, 4 U of RiboLock RNase Inhibitor (Thermo Fisher Scientific, Waltham, MA, USA), and 0.1 mM of D-luciferin (Sigma-Aldrich, Burlington, MA, USA) were pre-incubated at RT for 5 min after the addition of the tested compounds at a final concentration of 30 µM. Then, 50 ng of the mRNA was added to each reaction tube, and the mixtures were immediately subjected to continuous chemiluminescence measurements using the VICTOR X5 Multilabel Plate Reader (PerkinElmer, Waltham, MA, USA) at 37 °C for 30 min. The maximal rates of the firefly luciferase (Fluc) accumulation were calculated using the OriginPro 7.5 software. The values were normalized to a positive control (0.3% DMSO, assigned a value of 100%).

In experiment [2] the test system is E. coli ΔsbmA. The experiment is described as follows: Antibacterial activity on agar plates, ΔsbmA strain versus wild type. In kind it is cell-based. To be noted: Figure 4B. On the procedure:
(§1) Antibiotic activity was also evaluated against the following strains: E. coli JW5503 ΔtolC (KanS) ermC, modified with the plasmid pKH80 [59], providing resistance to erythromycin due to the expression of ErmC methyltransferase; E. coli SQ171 ΔtolC transformed with the pAM552 plasmid; E. coli SQ171 ΔtolC modified with the pAM552 plasmid with A2059G substitution in the 23S rRNA; E. coli JW1052 ΔmdtH; E. coli JW0912 ΔompF; and E. coli JW0368 ΔsbmA [57]. The procedure was performed as described previously in [33]. In short, Petri dishes filled with LB solid medium containing a selective antibiotic and 1.5% agar were covered with the tested strains. After that, 1 µL of 10 mM water solutions of Bac(1–10), Bac(1–10, R/Y), Bac(1–10, R/Y)-Cn-TPP, TPP-C10-Bac(1–10, R/Y), and Onc112, LEV (25 μg/mL) in water, and ERY (5 mg/mL and 50 mg/mL) in DMSO were applied onto the agar plates. After overnight incubation at 37 °C, the plates were scanned using the ChemiDoc^TM Imagining System (Bio-Rad Laboratories, Hercules, CA, USA) in three channels (Cy2, Cy3, and Cy5). The obtained images were processed in the Image Lab^TM software (Version 6.0.1, Bio-Rad).

Experiment [3] relates to B. subtilis 168. The experiment is described as follows: microbe, parasite or virus in culture. The class given is cell-based. On the procedure:
(§2) The MIC values for Bac(1–10), Bac(1–10, R/Y), Bac(1–10, R/Y)-Cn-TPP, TPP-C10-Bac(1–10, R/Y), and Onc112 were determined via LB broth microdilution, as recommended by CLSI in the Methods for Dilution Antimicrobial Susceptibility Tests for Bacteria that Grow Aerobically, Approved Standard, 9th ed., CLSI document M07-A9, using in-house-prepared panels. The compounds were diluted in a 96-well microtiter plate to final concentrations ranging from 0.1 to 100 µM in a 200 µL aliquot of the bacterial suspension, followed by incubation at 37 °C for 18 h. The cell concentration was estimated according to the absorbance (A600). The measurements were performed with a VICTOR X5 Multilabel Plate Reader (PerkinElmer, Waltham, MA, USA). The following bacterial strains were used: E. coli BW25113, E. coli JW0368 ΔsbmA, B. subtilis 168, and B. subtilis CFR [39].

In experiment [4] the test system is B. subtilis CFR. As to the kind of experiment: microbe, parasite or virus in culture. Conditions: CFR, 18 h. In kind it is cell-based. On the procedure: as §2
In experiment [5] the test system is E. coli BW25113. The experiment is described as follows: microbe, parasite or virus in culture. The class given is cell-based. Conditions: E. coli BW25113, 37 °C, 18 h. On the procedure:
as §2

The subject of experiment [6] is E. coli JW0368 ΔsbmA. The experiment is described as follows: microbe, parasite or virus in culture. The class given is cell-based. Conditions: for MIC: E. coli ∆sbmA, 37 °C, 18 h; for difference of MIC values, E. coli ΔsbmA versus wild type: ratio of MIC values of Table 1. On the procedure:
as §2

Experiment [7] has as its system B. subtilis. The experiment is described as follows: Membrane potential with fluorescent probe diS-C3-(5). In kind it is cell-based. To be noted: diS-C3-(5) fluorescence. The procedure:
The membrane potential of B. subtilis was assessed by measuring the fluorescence emitted by the potential-dependent probe, diS-C3-(5). Bacterial cells derived from the overnight culture of B. subtilis were inoculated into a fresh LB medium and allowed to grow for 24 h until reaching an optical density of 0.8 at 600 nm. Subsequently, the bacteria were subjected to a 20-fold dilution in a buffer comprising 100 mM of KCl and 10 mM of Tris, adjusted to a pH of 7.4. Fluorescence measurements were conducted at 670 nm (with excitation at 630 nm) using a Fluorat-02-Panorama fluorimeter manufactured by Lumex Instruments in St. Petersburg, Russia.

Experiment [8] has as its system A549. The experiment is described as follows: cells. The procedure:
The cytotoxicity of the substances under study was tested using the MTT (3-(4,5-dimethylthiazol-2-yl)-2,5-diphenyltetrazolium bromide) assay with some modifications. The detailed procedure for the MTT assay is given in the Supplementary Materials (Section S5).
Two thousand five hundred cells per well for the MCF7, HEK293T, and A549 cell lines or 4000 cells per well for the VA13 cell line were plated in 135 µL of DMEM-F12 media with 10% FBS (both Gibco, Waltham, MA, USA) in a 96-well plate and were incubated in a 5% CO2 incubator for the first 16 h, without treatment. Then 15 µL of media-DMSO solutions of the tested substances were added to the cells (the final DMSO concentrations in the media were 1% or less), and the cells were treated for 72 h with 25 nM–50 µM (eight dilutions) of the tested substances (triplicate each). Serial dilutions of DMSO and doxorubicin were used as controls. The MTT reagent (Paneco LLC, Moscow, Russia) was then added to the cells at a final concentration of 0.5 g/L (10× stock solution in PBS was used) and incubated for 2.5 h at 37 °C in the incubator under an atmosphere of 5%
CO2. The MTT solution was then discarded, and 140 µL of DMSO (PharmaMed LLC, Krasnodar, Russia) was added. The plates were swayed on a shaker (60 rpm) to dissolve the formazan. The absorbance was measured using the VICTOR X5 Multilabel Plate Reader (PerkinElmer, Wa l th a m, MA, USA) at a wavelength of 565 nm (in order to measure formazan concentration). The resu l ts were used to construct a dose-response graph and to estimate IC50 values.
Figure S11.The dependencies of viability of cells after treatment by tested compounds.
(1 picture or pasted object on this page, not shown here)

Experiment [9] relates to E. coli ΔompF, E. coli ΔmdtH. As to the kind of experiment: Antibacterial activity on agar plates, ΔompF and ΔmdtH strains versus wild type. In kind it is cell-based. To be noted: Figure 4. On the procedure: as §1
[10] abbreviates: read-out: IC50 (50% inhibition of viability of cells), A549, 72 h, MTT.

Values after ≈ are worked out from the molar mass of the structure shown. Like-named read-outs stand apart in the source and are kept apart here. Square brackets hold non-standard residues; d marks the D form. Peptide text beside a SMILES is read from it. * marks the point of attachment. X2 = c1ccc([P+](CCCCCCCCCCN*)(c2ccccc2)c2ccccc2)cc1; X1 = c1ccc([P+](CCN*)(c2ccccc2)c2ccccc2)cc1

As a reminder, the IC50 is the midpoint of a concentration-inhibition curve. For `CC[C@H](C)[C@H](NC(=O)[C@H](CCCNC(=N)N)NC(=O)[C@@H](N)CCCNC(=N)N)C(=O)N[C@@H](CCCNC(=N)N)C(=O)N1CCC[C@H]1C(=O)N[C@@H](CCCNC(=N)N)C(=O)N1CCC[C@H]1C(=O)N1CCC[C@H]1C(=O)N[C@@H](Cc1ccc(O)cc1)C(=O)N[C@@H](CC(C)C)C(=O)NCC[P+](c1ccccc1)(c1ccccc1)c1ccccc1` [Compound 3, Bac(1–10, R/Y)-C2-TPP] (H-RRIRPRPPYL-X1; N-terminus assumed), the “inhibition of bacterial translation of firefly luciferase (Fluc) mRNA” value (“inhibition … (Fluc) mRNA” below) in [1] is reported as “almost completely”. The “antibacterial activity on E. coli ΔsbmA compared with wild-type strain” value in experiment [2] was “a decrease in the antibacterial activity”. The MIC was 12.5 µM in experiment [3] (B. subtilis 168, 37 °C, 18 h); 50 µM in [4]; 26.3 µM in experiment [5]; over 100 µM in experiment [6]. In experiment [6], the “difference of MIC values, E. coli ΔsbmA versus wild type” value is “four”. Moreover, in [7] (concentration not given), the “effect on membrane potential of B. subtilis” value was “a decrease in the membrane potential”. Besides, in [8] (setting [10]), the concentration for half-maximal inhibition (IC50) was over 50 µM.
Consider `CC[C@H](C)[C@H](NC(=O)[C@H](CCCNC(=N)N)NC(=O)[C@@H](N)CCCNC(=N)N)C(=O)N[C@@H](CCCNC(=N)N)C(=O)N1CCC[C@H]1C(=O)N[C@@H](CCCNC(=N)N)C(=O)N1CCC[C@H]1C(=O)N1CCC[C@H]1C(=O)N[C@@H](Cc1ccc(O)cc1)C(=O)N[C@@H](CC(C)C)C(=O)NCCCCCCCCCC[P+](c1ccccc1)(c1ccccc1)c1ccccc1` [Compound 4, Bac(1–10, R/Y)-C10-TPP] (H-RRIRPRPPYL-X2; N-terminus assumed), for which the “inhibition … (Fluc) mRNA” value in [1] was “almost completely”. In addition, the MIC in experiment [3] (B. subtilis 168, 37 °C, 18 h) is listed as 1.6 µM; in [4], 0.8 µM; in experiment [5], 100 µM; in experiment [6], 100 µM. Further, in [6] (MIC values of Table 1), the “comparison of MIC values, E. coli ΔsbmA versus wild type” value is “the same”. In addition, the “effect on membrane potential of B. subtilis” value in [7] (1 µM) was “rapid decrease in the membrane potential”. The 50% inhibitory concentration (IC50) in experiment [8] (setting [10]) amounted to 9.2 ± 0.9 µM.
Take `CC[C@H](C)[C@H](NC(=O)[C@@H](CCCNC(=N)N)NC(=O)[C@H](CCCNC(=N)N)NC(=O)[C@@H]1CCCN1C(=O)[C@@H]1CCCN1C(=O)[C@H](CCCNC(=N)N)NC(=O)[C@@H]1CCCN1C(=O)[C@H](CCCNC(=N)N)NC(=O)[C@@H]1CCCN1C(=O)[C@H](CC(C)C)NC(=O)[C@H](Cc1ccc(O)cc1)NC(=O)[C@@H]1CCCN1C(=O)[C@@H]1CCCN1C(=O)[C@H](CCCCN)NC(=O)[C@H](CC(=O)O)NC(=O)[C@@H](N)C(C)C)C(=O)N[C@@H](Cc1ccc(O)cc1)C(=O)N[C@@H](CC(N)=O)C(=O)N[C@H](CCCNC(=N)N)C(N)=O` [Onc112, reference compound] (H-VDKPPYLPRPRPPR[dR]IYN[dR]-NH2; N-terminus assumed): the “inhibition … (Fluc) mRNA” value in experiment [1] is recorded as “almost completely”. In [9], the “growth inhibition of E. coli ΔompF and ΔmdtH compared with wild-type strain” value is given as “no significant difference in the growth inhibition”. Further, the “antibacterial activity on E. coli ΔsbmA compared with wild-type strain” value in experiment [2] is “a decrease in the antibacterial activity”. Moreover, the MIC is listed as over 50 µM in [3] (168, 18 h); over 50 µM in experiment [4]; 11.6 µM (≈ 27.7 µg/mL) in experiment [5]; over 90 µM in experiment [6]. Further, in experiment [6], the “difference of MIC values, E. coli ΔsbmA versus wild type” value is “approximately eight”. The same compound gave a 50% inhibitory concentration (IC50) in [8] (72 h) of over 50 µM.

The record behind these values is PMC10818380, “Triphenylphosphonium Analogs of Short Peptide Related to Bactenecin 7 and Oncocin 112 as Antimicrobial Agents” (Pharmaceutics, 2024).
